Experiments:
Type in all cases: cell-based, murine
[1] = test system: TNF-α secretion in BV-2 cells; test: TNF-α ELISA of culture medium after LPS; conditions: 10 μM
Protocol: BV-2 and RAW264.7 cells were treated with compounds in the absence or presence of LPS (100 ng/ml). After 24 h, TNF-α levels in the culture medium were measured using a TNF-α ELISA kit (R&D Systems; DY410) according to the manufacturer’s protocol. Briefly, capture antibodies were coated on 96-well Maxisorp Nunc-Immuno plates (Thermo; #439454) for 1 h and washed with PBS containing 0.05% Tween-20 (PBST) three times. The plates were blocked with 1% BSA-PBS for 1 h and washed with PBST three times. Culture medium was added to the 96-well plate for 1 h and washed with PBST three times. Biotinylated detection antibody was added to the 96-well plate for 1 h and washed with PBST three times. Streptavidin–horseradish peroxidase (HRP) was added to the plate for 20 min and washed with PBST three times. After 20 min of incubation with TMB substrate (Thermo; #002023), TMB oxidation was stopped by adding 2 N H2SO4. The absorbance at 450 nm, 540 nm, and 570 nm was measured using a microplate reader (BioTek; Synergy). The following formula was used to calculate the net signal: OD450nm–(OD540nm + OD570nm)/2.
Fig. 2 SB26019 has anti-inflammatory activity via the accumulation of tubulin monomers. SB26019 (10 μM for 6 h) regulated the mRNA levels (a) and protein levels (b) of downstream genes of NF-κB in BV-2 murine microglial cells more efficiently than the other known tubulin modulators (n = 3). c Both tubulin modulators (10 μM for 6 h) and transient Flag-tagged α-tubulin overexpression increased the total amount of tubulin monomers. d Quantification of the amount of tubulin polymer vs. monomer in (c). Tubulin modulators (10 μM for 6 h) and transient Flag-tagged α-tubulin overexpression proportionally regulated the NF-κB signaling pathway at the mRNA (e) and protein levels f in RAW264.7 murine macrophage cells (n = 3). Data are presented as the mean ± SD (ns, not significant, p > 0.05; *p < 0.05; **p < 0.01; ***p < 0.001).

[2] = test system: NF-κB signaling pathway in BV-2 microglial cells; test: qPCR of NF-κB downstream genes after LPS; conditions: BV-2 cells, dose-dependent
Protocol: After cell lysis with RLT buffer (Qiagen), RNA was extracted using the RNAeasy PLUS Mini Kit (Qiagen; #74136). The resulting cDNA was generated using the AccuPower CycleScript RT PreMix (dT20) kit (Bioneer; K2044) on a C1000 Touch Thermal Cycler (Bio-Rad; #1841000). qPCR was performed using a KAPA SYBR® FAST qPCR Master Mix (2×) Universal Kit (Kapa; KK4605) on a StepOne Real-Time PCR system (Applied Biosystems; #4376357). The cycling threshold value of the endogenous control gene GAPDH was subtracted from the cycling threshold value of each target gene to calculate the shift in cycling threshold (ΔCT). […] The primer sequence information for this analysis is shown in Supplementary Table 3.
NF-κB is a central mediator that induces proinflammatory cytokines, including TNF-α, IL-1β, IL-6, and chemokines. […] The expression level of the proinflammatory cytokine TNF-α was also monitored with SB26019 treatment.
Fig. 2 SB26019 has anti-inflammatory activity via the accumulation of tubulin monomers. […]

[3] = biological target: T1, p65–α-tubulin interaction (Mus musculus, UniProt P05213+P99024); test: Immunoprecipitation of p65, IκB and α-tubulin; conditions: 1 h treatment, 10 μM
T1 construct: endogenous in cells
T1 sequence (P05213 whole entry): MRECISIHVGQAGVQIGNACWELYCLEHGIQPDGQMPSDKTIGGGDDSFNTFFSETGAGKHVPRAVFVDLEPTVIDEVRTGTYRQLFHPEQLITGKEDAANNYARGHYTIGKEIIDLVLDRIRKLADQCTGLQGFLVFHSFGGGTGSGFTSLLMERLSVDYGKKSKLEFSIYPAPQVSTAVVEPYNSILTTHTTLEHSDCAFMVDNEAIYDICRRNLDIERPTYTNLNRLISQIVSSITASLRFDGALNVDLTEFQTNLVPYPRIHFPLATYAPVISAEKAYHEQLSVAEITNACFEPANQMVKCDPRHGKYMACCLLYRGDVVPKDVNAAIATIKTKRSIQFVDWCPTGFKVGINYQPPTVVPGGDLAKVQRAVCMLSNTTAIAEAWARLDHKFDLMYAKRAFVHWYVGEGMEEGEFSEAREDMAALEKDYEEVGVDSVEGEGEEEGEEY
T1 sequence (P99024 whole entry): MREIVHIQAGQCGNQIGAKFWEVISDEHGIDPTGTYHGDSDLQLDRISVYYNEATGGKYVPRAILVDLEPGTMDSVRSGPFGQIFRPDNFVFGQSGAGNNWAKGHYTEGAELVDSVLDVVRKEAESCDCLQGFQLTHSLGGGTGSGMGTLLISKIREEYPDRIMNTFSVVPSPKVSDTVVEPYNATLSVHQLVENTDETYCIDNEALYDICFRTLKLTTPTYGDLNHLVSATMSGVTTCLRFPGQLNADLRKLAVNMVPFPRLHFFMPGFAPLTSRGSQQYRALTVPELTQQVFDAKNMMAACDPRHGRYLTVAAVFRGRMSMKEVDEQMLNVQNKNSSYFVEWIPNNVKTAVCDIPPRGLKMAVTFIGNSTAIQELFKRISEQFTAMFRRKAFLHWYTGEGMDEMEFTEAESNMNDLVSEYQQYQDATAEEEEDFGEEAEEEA
Protocol: After a 1-h incubation in the absence or presence of SB26019, cells were harvested and lysed for 1 h on ice with IP lysis buffer {50 mM Tris–HCl pH 8.0 (Acros; #77-86-1), 200 mM NaCl, 0.5% NP40 (Sigma; #I8896), and 1× protease inhibitor cocktail (Roche; #11873580001)}. The protein concentration was measured using a bicinchoninic acid (BCA) protein assay kit (Thermo; #23225). Then, 150 μg of the lysates were incubated with 1.5 μg of anti-p65 antibody (Abcam; ab16502), anti-IκB antibody (CST; #4814), or α-tubulin antibody (CST; #3873) at 4 °C overnight. Subsequently, the proteins of interest were precipitated using protein A and G beads (Santa Cruz; sc-2001, sc-2002). Samples were analyzed with western blotting using anti-p65, IκB, and α-tubulin primary antibodies.
To understand the inhibitory mechanism of p65 nuclear translocation by SB26019, the expression levels of p65, IκB, and tubulin monomers were monitored upon SB26019 treatment in murine macrophage cells. […] Additionally, nuclear translocation of p65 was inhibited by SB26019 treatment despite an increase in phospho-IκB and a decrease in total IκB (Fig. 3e). […] Consequently, IκB is released from p65 and degraded by the proteasome. […] To test this hypothesis, we monitored protein‒protein interactions among p65, IκB, and tubulin with immunoprecipitation. […]

- Interaction between p65 and α-tubulin [3]: increased
SMILES: COc1ccc2c(c1O)OC(C)(C)C=C2c1cccc2c1oc1ccccc12 [Compound 8]
- TNF-α levels compared to that of the DMSO control [1]: < 50%
- mRNA of inflammatory marker genes (Ccl2, Cxcl10, Il-1β, Il-6, Nos2, Tnf) [2]: suppressed the production of inflammatory marker genes
